In patent US7625875B2 (priority 2002, dated 2009):
≈ marks a conversion by molar mass, not a printed value. Where “and” joins values, the source holds several entries; their conditions need not be identical. Identical values can stand only once. Like-named read-outs stand apart in the source and are kept apart here.

Key:
[1] = tested on: BVDV (strain I-N-dIns), noncytopathic; assay type: cell-based, bovine viral diarrhea virus
Adenovirus type 1 = test: Antiviral activity, Adenovirus type 1 (A549); assay type: cell-based; settings: Human mastadenovirus C
HSV-1 = test: Antiviral activity, HSV-1 (HFF); assay type: cell-based; settings: Human alphaherpesvirus 1
Huh7 cells = test: Mitochondria toxicity assay, lactic acid production, Huh7; settings: 4 days
HepG2 cells [2] = test: Cellular RNA synthesis, [3H]-uridine incorporation; settings: read-out: CC50 RNA ([3H]Uridine); 50% reduction of uridine incorporation into cellular RNA
BVDV RNA = test: Intracellular BVDV RNA by Real Time RT-PCR in de novo-infected MDBK cells; assay type: cell-based, bovine viral diarrhea virus
West Nile Virus = test: microbe, parasite or virus in culture; assay type: cell-based; settings: BHK
[3] = tested on: LLC-MK2, Rhesus monkey kidney cells; settings: Punta Toro A line
HCMV = test: Antiviral activity, HCMV (HFF); assay type: cell-based; settings: Human betaherpesvirus 5
[4] = tested on: KB, human nasopharyngeal carcinoma; test: Cytotoxicity, KB; assay type: cell-based
DENV-2 = test: microbe, parasite or virus in culture; assay type: cell-based; settings: Dengue virus, DENV2, read-out: composite EC50 range
VEE = test: microbe, parasite or virus in culture; assay type: cell-based; settings: Venezuelan equine encephalitis virus, Vero
Sb-1 = test: organism not typed; assay type: cell-based, Sabin type 1 poliomyelitis virus
HepG2 cells [5] = test: Mitochondria toxicity assay, lactic acid production, HepG2; settings: for L-Lactate (% of Control): 4 days
[6] = tested on: MT-4 human T-lymphocyte cells; settings: human
in vitro [7] = settings: hamster
[8] = tested on: BVDV New York-1 (NY-1) strain; test: MDBK cells persistently infected with BVDV strain New York-1, virus titer; assay type: cell-based, bovine viral diarrhea virus; settings: 8 μM alone, after one passage
[9] = tested on: human cytidine/deoxycytidine deaminase enzymes; settings: 37° C.
Rhinovirus type 2 = test: microbe, parasite or virus in culture; assay type: cell-based; settings: Enterovirus
HepG2 cells [10] = test: Mitochondrial DNA content; assay type: cell-based, human
Protocol: To assess the potential of mCyd to produce mitochondrial toxicity, several in vitro studies were conducted using the human hepatoma cell lines HepG2 or Huh7.
The significance of this finding is unclear, particularly since mCyd is unlikely to attain a plasma concentration of 50 μM in the clinic. For comparison, lactic acid production increases by 100% over control cells in cells treated with 10 μM FIAU (Cui L, Yoon, et al. J. Clin. Invest. 1995; 95:555-563).

Influenza A/H1N1 = test: Antiviral activity, Influenza A/H1N1 (MDCK); assay type: cell-based; settings: Influenza A virus
Punta Toro A = test: organism not typed; assay type: cell-based; settings: LLC-MK2
HBV = assay type: cell-based
MCMV = test: Antiviral activity, MCMV (MEF); assay type: cell-based
Polio Virus Sb-1 = test: organism not typed; assay type: cell-based; settings: Vero
HepG2 cells [11] = test: Incorporation of drug into cellular RNA and DNA; settings: 10 μM [3H] drug, 30 hours
in vitro [12] = settings: African green monkey
HepG2 cells [13] = test: Transmission electron microscopy of mitochondrial ultrastructure
[14] = tested on: HeLa, human cervical adenocarcinoma cells; test: Cytotoxicity, HeLa-Ohio; assay type: cell-based; settings: Rhinovirus type 14 line
[15] = tested on: MEF mouse embryo fibroblasts; test: Cytotoxicity assay, MEF; settings: MCMV (MEF) line
[16] = tested on: MA-104, Rhesus monkey kidney cells; test: Cytotoxicity, MA-104; settings: Parainfluenza type 3 line
Parainfluenza type 3 = test: Antiviral activity, Parainfluenza type 3 (MA-104); assay type: cell-based; settings: MA104
HSV-2 = test: Antiviral activity, HSV-2 (HFF); assay type: cell-based; settings: Human alphaherpesvirus 2
CVB-2 = test: organism not typed; assay type: cell-based, Coxsackie B-2 virus; settings: read-out: EC50 CVB-2
Influenza B = test: Antiviral activity, Influenza B (MDCK); assay type: cell-based; settings: Influenza B virus
HepG2 cells [17] = test: Cellular DNA synthesis, [3H]-thymidine incorporation; settings: read-out: CC50 DNA ([3H]Thymidine); 50% reduction of thymidine incorporation into cellular DNA
REO-1 = test: microbe, parasite or virus in culture; assay type: cell-based, double-stranded RNA Reovirus; settings: Reovirus sp., read-out: REO
[18] = tested on: A549, Human lung carcinoma cells; test: Cytotoxicity, A549; assay type: cell-based; settings: Adenovirus type 1 line

CC1(O)C(O)C(CO)OC1n1ccc(N)nc1=O (stereo not shown) [mCyd, 4-Amino-1-(3,4-dihydroxy-5-hydroxymethyl-3-methyl-tetrahydro-furan-2-yl)-1H-pyrimidine-2-one]
reduction of BVDV titer ([1]; 4 μM, one cell passage (3 days)): approximately 3 log10 | reduction of virus production ([1]; 8 μM): 6.2 log10 | virus production ([1]; 16 μM, within two cell passages, from more than 6 logs of virus per ml): undetectable levels | EC50 (Adenovirus type 1): > 200 µM | EC50 (HSV-1): > 100 µg/mL | L-Lactate (% of Control) (Huh7 cells; 10 μM): 98.0 ± 12.3 % of Control | L-Lactate (% of Control) (Huh7 cells; 50 μM): 97.1 ± 10.1 % of Control | CC50 (HepG2 cells [2]): 186 ± 28.2 µM | effect on the level of the rig S15 cellular mRNA control (BVDV RNA): No effect | maximum viral RNA reduction (BVDV RNA; highest inhibitor concentration tested (125 μM)): 4 log10 | EC50 (West Nile Virus): 63 to 97 µM | CC50 [3]: > 200 µM | EC50 (HCMV): 9.9 to 15.6 µg/mL (≈ 38.5 to 60.6 µM) | CC50 ([4]; Rhinovirus type 2 line, read-out: CC50): > 200 µM | CC50 ([4]; Rhinovirus type 5 line): 20 to 30 µg/mL | EC50 (DENV-2): 59 to 95 µM | EC50 (VEE): 1.3 to 45 µM | EC50 (Sb-1; read-out: EC50 Sb-1): 6 µM | EC50 (Sb-1; read-out: Sb-1): 11.5 µM | L-Lactate (% of Control) (HepG2 cells [5]; 10 μM): 98.6 ± 7.3 % of Control | increase in lactic acid production (HepG2 cells [5]; 50 μM): 38% | L-Lactate (% of Control) (HepG2 cells [5]; 50 μM): 138.0 ± 8.9 % of Control | CC50 [6]: 34 µM | CC50 (in vitro [7]): > 100 µM | reduction of viral titers [8]: approximately 3.5 log10 | in vitro stability, deamination to mUrd [9]: remained essentially unchanged | EC50 (Rhinovirus type 2): 2 to 10 µM | mtDNA/nuclear DNA (% of Control) (HepG2 cells [10]; 10 μM, 6 day treatment): 117.3 ± 17.5 % of Control | mtDNA/nuclear DNA (% of Control) (HepG2 cells [10]; 10 μM, 14 day treatment): 99.7 ± 23.9 % of Control | mtDNA/nuclear DNA (% of Control) (HepG2 cells [10]; 50 μM, 6 day treatment): 158.2 ± 17.5 % of Control | mtDNA/nuclear DNA (% of Control) (HepG2 cells [10]; 50 μM, 14 day treatment): 83.0 ± 15.5 % of Control | EC50 (Influenza A/H1N1): > 200 µM | EC50 (Punta Toro A): > 200 µM | activity against HBV (HBV): no activity | EC50 (MCMV): > 800 nM | EC50 (Polio Virus Sb-1): 6 µM | Incorporated drug amount, DNA (HepG2 cells [11]): 0.0013 pmole/μg DNA and 0.0013 ± 0.0008^a pmole/μg DNA | Incorporated drug amount, RNA (HepG2 cells [11]): 0.0014 pmole/μg RNA and 0.0014 ± 0.0008^a pmole/μg RNA | CC50 (in vitro [12]): > 100 µM | Electron Microscopy, Lipid Droplet Form. (HepG2 cells [13]; 10 μM, 14 days): Negative | Electron Microscopy, Mito. Morphol. (HepG2 cells [13]; 10 μM, 14 days): Normal^d | cells in which 1 to 2 mitochondria out of an average of 25 appeared enlarged (HepG2 cells [13]; 14 days of exposure to 10 μM): 17% | CC50 [14]: 20->100 μg/mL | CC50 [15]: 2400 nM | CC50 [16]: > 200 µM | EC50 (Parainfluenza type 3): > 200 µM | EC50 (HSV-2): > 100 µg/mL | EC50 (CVB-2): 11 µM | EC50 (Influenza B): > 200 µM | CC50 (HepG2 cells [17]): 112 ± 34.5 µM | EC50 (REO-1): 13 µM | CC50 [18]: > 200 µM
